Assay results published in patent US20210070735A1, “RIP1 INHIBITORY COMPOUNDS AND METHODS FOR MAKING AND USING THE SAME” (Rigel Pharmaceuticals, Inc., priority 2019, published 2021).

What was measured:
RIPK1 = target: T1, RIPK1 (Homo sapiens, UniProt Q13546); test: RIPK1 ADP-Glo biochemical kinase assay; details: 30 min at 30° C.
T1 sequence (Q13546 1-671): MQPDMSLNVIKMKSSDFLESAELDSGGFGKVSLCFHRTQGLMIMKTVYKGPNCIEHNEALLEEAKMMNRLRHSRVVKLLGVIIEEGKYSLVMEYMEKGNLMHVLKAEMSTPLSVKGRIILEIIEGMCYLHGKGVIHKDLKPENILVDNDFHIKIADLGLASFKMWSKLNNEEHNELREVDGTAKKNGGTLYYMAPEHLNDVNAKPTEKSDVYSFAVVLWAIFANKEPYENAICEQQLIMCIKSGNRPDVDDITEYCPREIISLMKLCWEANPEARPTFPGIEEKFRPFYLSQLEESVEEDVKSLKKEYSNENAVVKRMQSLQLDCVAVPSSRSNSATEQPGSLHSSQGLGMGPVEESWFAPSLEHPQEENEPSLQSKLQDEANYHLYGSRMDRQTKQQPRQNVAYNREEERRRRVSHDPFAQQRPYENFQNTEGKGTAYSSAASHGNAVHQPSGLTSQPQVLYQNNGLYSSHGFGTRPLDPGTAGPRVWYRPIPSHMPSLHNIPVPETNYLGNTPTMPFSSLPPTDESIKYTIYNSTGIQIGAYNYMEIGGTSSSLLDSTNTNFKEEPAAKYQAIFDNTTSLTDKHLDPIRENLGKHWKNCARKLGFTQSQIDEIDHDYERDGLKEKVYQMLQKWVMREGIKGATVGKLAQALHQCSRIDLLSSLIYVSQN
Experimental: The final reaction volume was 5.0 μl.
Adding 5 μl of ADP-Glo™ terminated the reaction.

murine RIP1 = target: T2, murine RIP1 (Mus musculus, UniProt Q60855); test: L929 cell necroptosis assay (TNFa + zVAD, CellTiter-Glo); type: cell-based
T2 construct: U937 and L929 cells were obtained from the American Type Culture Collection; host or cells: L929
T2 sequence (Q60855 1-656): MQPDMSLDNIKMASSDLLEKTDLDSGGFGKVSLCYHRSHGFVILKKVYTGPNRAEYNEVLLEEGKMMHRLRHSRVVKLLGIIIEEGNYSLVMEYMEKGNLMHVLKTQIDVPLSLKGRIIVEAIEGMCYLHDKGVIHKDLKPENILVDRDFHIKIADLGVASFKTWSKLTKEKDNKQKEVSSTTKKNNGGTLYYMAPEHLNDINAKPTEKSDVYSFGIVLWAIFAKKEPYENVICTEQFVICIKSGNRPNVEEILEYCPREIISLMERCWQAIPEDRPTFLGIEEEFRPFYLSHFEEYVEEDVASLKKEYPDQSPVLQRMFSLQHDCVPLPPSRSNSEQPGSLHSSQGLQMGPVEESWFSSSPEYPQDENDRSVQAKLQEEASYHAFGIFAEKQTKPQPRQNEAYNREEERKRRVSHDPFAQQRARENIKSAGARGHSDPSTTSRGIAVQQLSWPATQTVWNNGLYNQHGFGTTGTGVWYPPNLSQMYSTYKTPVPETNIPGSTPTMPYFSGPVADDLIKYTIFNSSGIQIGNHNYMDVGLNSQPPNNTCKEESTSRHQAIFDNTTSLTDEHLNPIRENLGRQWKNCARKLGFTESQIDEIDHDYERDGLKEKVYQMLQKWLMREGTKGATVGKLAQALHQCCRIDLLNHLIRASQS
Experimental: (§1) In this example, U937 and L929 cells were exposed to compounds of the present disclosure and a cell necroptosis assay was conducted to evaluate the compounds' activity against human RIP1 and murine RIP1.
(§2) U937 and L929 cells were obtained from the American Type Culture Collection (Manassa, Va., USA). Both cells were maintained in logarithmic growth phase in complete RPMI 1640 media (Sigma, ST Louis, Mo., USA) supplemented with 10% fetal bovine serum (Sigma, ST Louis, Mo., USA) at 37° C. with 5% CO2. For necroptosis assay, L929 cells were plated for 18 h in 100 µL/well medium at 10K cells/well in Costar 96-well black clear-bottom plates (Fisher Scientific, Hampton, N.H., USA); U937 cells were plated on the day of the assay in 50 µL/well medium containing 60 uM zVAD-fmk (Lonza, Basel, Switzerland) at 50K cells/well. Medium from L929 cells were removed from the 96-well plates and replaced with 50 µL/well new medium containing 40 uM zVAD-fmk. Each compound of the present disclosure evaluated in this example was serially diluted in DMSO from 2.5 mM in 4-fold dilutions, and then diluted 1:125 in complete medium. 50 µL/well 2× of the compound was then added to the cells in the plates. The cells were pre-incubated with the compound for 1 hour at 37° C. with 5% CO2 and before addition of 10 µL/well 11×TNFa (Peprotech, Rocky Hill, N.J., USA) to give a final concentration of 2 ng/mL for TNFa. The relative amount of necroptosis cells was determined by luminescent using a Wallac Victor2 Luminometer (PerkinElmer, Waltham, Mass., USA) and a CellTiter-Glo® Luminescent Cell Viability Reagent Assay (Promega, Madison, Wis., USA) added per manufacturer instructions after 18 hours of TNFa stimulation at 37° C. with 5% CO2.Results from this example are summarized in Table 2. This example establishes that embodiments of the compounds described herein have unexpectedly potent activity against human RIP1 and murine RIP1, which allows their assessment in in vivo mouse models of disease.

human RIP1 = target: T3, human RIP1 (Homo sapiens, UniProt Q13546); test: U937 cell necroptosis assay (TNFa + zVAD, CellTiter-Glo); type: cell-based; details: U937 Zvad TNF CTG Recovery, U937 cells, TNFa 2 ng/mL + zVAD-fmk, 18 hours
T3 construct: U937 and L929 cells were obtained from the American Type Culture Collection; host or cells: U937
T3 sequence (Q13546 1-671): T1 sequence (Q13546 1-671)
Experimental: as §1, §2

| IC50 (RIPK1) [nM] | SMILES | IC50 (murine RIP1) [nM] | IC50 (human RIP1) [nM] |
| --- | --- | --- | --- |
| 23.4 | CN1C(=O)[C@@H](NC(=O)c2n[nH]c(Cc3ccccc3)n2)CCc2ccc(C#Cc3cccnc3)cc21 [Compound I-18, (S)-5-Benzyl-N-(1-methyl-2-oxo-8-(pyridin-3-ylethynyl)-2,3,4,5-tetrahydro-1H-benzo[b]azepin-3-yl)-1H-1,2,4-triazole-3-carboxamide] | 5.9 | 3.2 |
| 62.4 | CN1C(=O)[C@@H](NC(=O)c2n[nH]c(Cc3ccccc3)n2)CCc2ccc(C#CC(C)(C)C)cc21 [Compound I-21, (S)-5-Benzyl-N-(8-(3,3-dimethylbut-1-yn-1-yl)-1-methyl-2-oxo-2,3,4,5-tetrahydro-1H-benzo[b]azepin-3-yl)-1H-1,2,4-triazole-3-carboxamide] | 25.3 | 13.4 |
| 34.2 | CN1C(=O)[C@@H](NC(=O)c2cc(Oc3ccccc3)ccn2)CCc2ccc(C#CC3(O)COC3)cc21 [Compound I-22, (S)—N-(8-((3-hydroxyoxetan-3-yl)ethynyl)-1-methyl-2-oxo-2,3,4,5-tetrahydro-1H-benzo[b]azepin-3-yl)-4-phenoxypicolinamide] | 8.2 | 0.8 |
| 38.8 | CN1C(=O)[C@@H](NC(=O)c2ccn(Cc3ccccc3)n2)CCc2ccc(N3CC4(CCOCC4)C3)cc21 [Compound I-32, (S)-1-Benzyl-N-(1-methyl-2-oxo-8-(7-oxa-2-azaspiro[3.5]nonan-2-yl)-2,3,4,5-tetrahydro-1H-benzo[b]azepin-3-yl)-1H-pyrazole-3-carboxamide] | 182 | 2.7 |
| 54.6 | CN1C(=O)[C@@H](NC(=O)c2ccn(Cc3ccccc3)n2)CCc2ccc(C#CC(C)(C)C)cc21 [Compound I-33, (S)-1-Benzyl-N-(8-(3,3-dimethylbut-1-yn-1-yl)-1-methyl-2-oxo-2,3,4,5-tetrahydro-1H-benzo[b]azepin-3-yl)-1H-pyrazole-3-carboxamide] | 30 | 7.6 |
| 26 | CN1C(=O)[C@@H](NC(=O)n2cc(Cc3ccc(F)cc3)cn2)CCc2ccc(C#CC3(O)CCOCC3)cc21 [Compound I-34, (S)-4-(4-Fluorobenzyl)-N-(8-((4-hydroxytetrahydro-2H-pyran-4-yl)ethynyl)-1-methyl-2-oxo-2,3,4,5-tetrahydro-1H-benzo[b]azepin-3-yl)-1H-pyrazole-1-carboxamide] | 5.9 | 0.4 |
| 73 | CC(C)(O)C#Cc1ccc2c(c1)NC(=O)[C@@H](NC(=O)c1cc(Oc3ccc(F)cc3)ccn1)CC2 [Compound I-35, (S)-4-(4-Fluorophenoxy)-N-(8-(3-hydroxy-3-methylbut-1-yn-1-yl)-2-oxo-2,3,4,5-tetrahydro-1H-benzo[b]azepin-3-yl)picolinamide] | 1790 | 552 |
| 39.2 | [2H]C([2H])([2H])N1C(=O)[C@@H](NC(=O)n2cc(Cc3ccc(F)cc3)cn2)CCc2ccc(C#CC(C)(C)O)cc21 [Compound I-36, 4-(4-Fluorobenzyl)-N-(8-(3-hydroxy-3-methylbut-1-yn-1-yl)-1-(methyl-d)-2-oxo-2,3,4,5-tetrahydro-1H-benzo[b]azepin-3-yl)-1H-pyrazole-1-carboxamide] | 4.5 | 0.5 |
| 12.7 | CN1CCN(C(C)(C)C#Cc2ccc3c(c2)N(C)C(=O)[C@@H](NC(=O)c2cc(Oc4ccccc4)ccn2)CC3)CC1 [Compound I-37, (S)—N-(1-Methyl-8-(3-methyl-3-(4-methylpiperazin-1-yl)but-1-yn-1-yl)-2-oxo-2,3,4,5-tetrahydro-1H-benzo[b]azepin-3-yl)-4-phenoxypicolinamide] | 1940 | 21 |
